Biological target: T1, endogenous wild-type H-Ras protein (Mus musculus, UniProt Q61411)
T1 construct: an endogenous wild-type K-Ras protein and wild-type H-Ras protein; from tissue; host or cells: mouse pancreas and colon
Experiment: Degradation of endogenous wild-type H-Ras protein in mouse pancreas and colorectal tissue, Western blot analysis
Assay type: in vivo
Conditions: C57BL/6J mice, intraperitoneal, 48 hours, FIG. 8
Experimental: In Example 9, in a mouse individual to which TUS-007 had been administered, the degradation (knockdown) of an endogenous wild-type K-Ras protein and wild-type H-Ras protein was evaluated by Western blot analysis.
TUS-007 was dissolved in DMSO, and then dissolved in corn oil so that the concentration of DMSO was 10 vol %, and then intraperitoneally administered to C57BL/6J wild-type mice (8 to 9 weeks old, male) (CLEA Japan, Inc.) in an amount of 40 mg/kg body weight or 80 mg/kg body weight (n=3 to 4). Furthermore, in addition to a group in which TUS-007 was administered, a group in which Ras-SOS had been administered in a dose of 80 mg/kg body weight was prepared. As a control, an injection carrier (corn oil containing 10 vol % DMSO) was used. The mice were kept under an environment of ad libitum access to food and water. The mice were dissected under deep anesthesia 48 hours after administration. The pancreas and colon were excised, and flash frozen in liquid nitrogen.
The frozen pancreas and colon were each triturated, and then TKM tissue lysis buffer (50 mM triethanolamine (pH 7.8), 50 mM KCl, 5 mM MgCl2, 0.25 M sucrose, 1 mM PMSF, Protein Inhibitors Cocktail-EDTA free (Nacalai Tesque, Inc.), 1 mM DTT, and a recombinant RNase inhibitor (0.2 U/μL, Takara Bio) were added, and subjected to centrifugation (at 13800 rpm×30 minutes, 4° C.), and the supernatants (pancreatic tissue extract and colorectal tissue extract) were collected. The concentration of the extracted proteins was quantified with a spectrophotometer.
Each tissue extract collected was subjected to Western blot analysis. […]
After electrophoresis, proteins were transferred to a PVDF membrane (Immobion™-P, Millipore) under conditions of 200 mA and 90 minutes using a tank-type blotting device and a transfer buffer (25 mM Tris-HCl, 195 mM glycine, 0.01% SDS, 15% methanol). […] Subsequently, the membrane was treated with a chemiluminescence reagent Immobilon™ Western (Millipore), and then chemiluminescence was detected using a lumino image analyzer LAS-3000 (FUJIFILM Corporation).

T1 sequence (Q61411 whole entry): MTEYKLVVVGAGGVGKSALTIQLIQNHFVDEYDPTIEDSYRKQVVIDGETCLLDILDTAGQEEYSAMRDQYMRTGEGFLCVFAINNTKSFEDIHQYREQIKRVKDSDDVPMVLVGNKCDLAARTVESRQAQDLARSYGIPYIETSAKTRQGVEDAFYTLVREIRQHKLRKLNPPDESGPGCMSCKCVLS

CCC(C)[C@H](NC(=O)CCCCCCNC(=O)[C@H](CC(C)C)NC(=O)CNC(=O)c1cc(Cl)ccc1Cl)C(=O)Nc1ccc2[nH]c(Cc3c[nH]c4ccccc34)nc2c1 (stereo in doubt) [TUS-007]
amount of the endogenous wild-type H-Ras protein in the pancreatic tissue (Western blot) (40 or 80 mg/kg, pancreatic tissue): remarkably reduced in the pancreatic tissue | amount of the endogenous wild-type H-Ras protein in mouse tissues (Western blot) (TUS-007 40 or 80 mg/kg, Ras-SOS 80 mg/kg, pancreas and colon): reduced in a concentration-dependent manner

— US11052154B2, “Ras protein degradation inducing molecule and pharmaceutical composition” (Tokyo University of Science Foundation, priority 2016, dated 2021)
